Data as given in EP4790066A1, “GLP-1R/GIPR/GCGR TRIPLE AGONIST ANALOGUE AND USE THEREOF” (Shenzhen Bay Laboratory, priority 2023, dated 2025).
*1 amine or outer side, *2 acyl side, *3 side chain or, on linkers, in order; H or OH if unused. Where a SMILES comes first, the peptide text is derived from it. Bridges are numbered along the chain shown (N, C = ends). [ ]: non-standard residue; d: D form. X1 = O=C(O)CCCCCCCCCCCCCCCCCCC(=O)N[C@@H](CCCCNC(=O)COCCOCCNC(=O)COCCOCCNC(=O)CCC(=O)N(CCNC(=O)C[*:1])CCNC(=O)C[*:2])C(=O)O; Phe(2-F) = N[C@@H](Cc1ccccc1F)C(=O)O; αMeL = CC(C)C[C@](C)(N)C(=O)O; αMeK = C[C@](N)(CCCCN)C(=O)O; αMeS = C[C@](N)(CO)C(=O)O; Aib = CC(C)(N)C(=O)O

Experiments:
[1] = molecular target: T1, GCGR (Homo sapiens, UniProt P47871); experiment: cAMP method (HTRF cAMP detection kit), HEK293/pGM-CREB-L-Luc/GCG pool; assay type: cell-based; conditions: read-out: EC50 (pM) for each receptor GCGR
T1 construct: expressed in transfected cells
Method: (§1) 2. Insulinotropic analogues can bind to target receptors on the cell membrane, activate the receptors, and induce release. The activity of the test substance can be determined using the HTRF method with a cAMP detection kit. Therefore, the cAMP method can be used to detect the target peptide derivatives (or polypeptide derivatives, i.e., TG1-TG86) prepared in Example 1 and Example 2. […] The test cell line was selected, treated with cAMP-specific trypsin for digestion. 3 mL of serum-free DMEM culture medium was added, and the cells were pipetted, resuspended, and counted. 5 µL of IBMX (prepared with serum-free DMEM medium, 0.5 mM) and test cells (5 µL/7500 cells/well) were added in a 384-well plate sequentially. The plate was incubated at 37°C under 5% CO2 for 30 min, followed by the addition of cAMP-d2 (5 µL, 1x) and Anti-cAMP-Cryptate (5 µL, 1x). The mixture was kept at room temperature for 1 h, after which the HTRF value was measured using a chemiluminescent microplate reader, and the determination result was recorded. […] Table 4: EC50 values for target peptide derivatives

[2] = molecular target: T2, GIPR (Homo sapiens, UniProt P48546); experiment: CreLuc method (CRE-luciferase reporter), HEK293/pGM-CREB-L-Luc/GIPR pool; assay type: cell-based; conditions: 6 h incubation, read-out: EC50 (pM) for each receptor GIPR
T2 construct: expressed in transfected cells
T2 sequence (P48546 22-466): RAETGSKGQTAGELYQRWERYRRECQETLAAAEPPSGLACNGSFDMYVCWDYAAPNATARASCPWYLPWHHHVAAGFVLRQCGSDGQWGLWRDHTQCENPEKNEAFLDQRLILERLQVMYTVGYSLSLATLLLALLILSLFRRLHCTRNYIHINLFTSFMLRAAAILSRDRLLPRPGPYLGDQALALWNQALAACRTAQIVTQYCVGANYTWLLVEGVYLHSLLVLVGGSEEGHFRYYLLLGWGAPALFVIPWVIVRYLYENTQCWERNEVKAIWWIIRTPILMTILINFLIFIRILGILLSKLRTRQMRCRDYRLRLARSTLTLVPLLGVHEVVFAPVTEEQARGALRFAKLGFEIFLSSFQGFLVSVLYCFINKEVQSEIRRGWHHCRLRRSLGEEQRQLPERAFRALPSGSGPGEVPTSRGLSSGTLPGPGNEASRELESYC
How it was run: (§2)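 Stable HEK293 pools co-expressing each receptor with a CRE-luciferase reporter were plated at 20,000 cells/well in freestyle medium and treated with compound dilution series for 6 h at 37 °C. Luminescence was read with ONE-GLO to derive EC50.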

[3] = molecular target: T1, GCGR; experiment: CreLuc method (CRE-luciferase reporter), 293HEK/pGM-CREB-L-Luc/GCGR pool; assay type: cell-based; conditions: 6 h incubation, read-out: EC50 (pM) for each receptor GCGR
How it was run: as §2

[4] = molecular target: T3, GLP-1R (Homo sapiens, UniProt P43220); experiment: CreLuc method (CRE-luciferase reporter), HEK293/pGM-CREB-L-Luc/GLP-1R pool; assay type: cell-based; conditions: 6 h incubation, read-out: EC50 (pM) for each receptor GLP-1R
T3 construct: expressed in transfected cells
How it was run: as §2

[5] = in vivo; set-up: species or system male SD rats; conditions: rat
Method: The pharmacokinetic behavior of target peptide derivatives (or polypeptide derivatives) prepared in Example 1 and Example 2, i.e., TG1-TG94 in rodents was tested. The specific steps are as follows:
The target peptide derivatives (TG1-TG94) to be tested were administered to male SD rats via subcutaneous injection (SC, 3 mg/kg; drug vehicle: PBS, concentration: 1.5 mg/mL; administration volume: 2 mL) and intravenous injection (IV, 1 mg/kg; drug vehicle: PBS, concentration: 0.5 mg/mL; administration volume: 2 mL) as a single dose, respectively. Whole blood samples were collected from the jugular vein or other appropriate vein at the following time points after administration: for SC, 15 min, 30 min, 1 h, 2 h, 4 h, 6 h, 8 h, 24 h, 48 h, 72 h, 96 h, 120 h, and 168 h; for IV, 5 min, 15 min, 30 min, 1 h, 2 h, 4 h, 8 h, 24 h, 48 h, 72 h, 96 h, 120 h, and 168 h. 0.2 mL of blood was collected and transferred into a labeled EDTA-K2 anticoagulant tube. The tube was gently inverted to ensure thorough mixing of the anticoagulant (EDTA-K2) with the blood and immediately placed on wet ice. Plasma separation was performed as soon as possible by centrifugation under the following conditions: 4°C, 6800xg, for 6 min. The plasma samples were stored in a refrigerator at no higher than -20°C and used for analysis when needed.
Under the condition of yellow light in an ice-water bath, except for blank samples, 300 µL of precipitant containing an internal standard was added to a 96-well plate containing 20 µL of standard curve sample, quality control sample, or unknown sample; 300 µL of acetonitrile was added to the blank sample. The mixture was vortexed, mixed well, and then centrifuged. 150 µL of the supernatant after centrifugation was transferred to a new 96-well plate, and 150 µL of ultrapure water was added and mixed well. The above samples were subjected to quantitative analysis using LC-MS analysis with XB-C18 (2.1 * 100 mm, 3 µm) chromatography for gradient elution. The mobile phases used were: mobile phase A = 0.1% formic acid-water; mobile phase B = acetonitrile. Phoenix WinNonlin software was used to calculate the pharmacokinetic parameters. […] Table 5A: Pharmacokinetic parameters of target peptide derivatives

[6] = molecular target: T2, GIPR; experiment: cAMP method (HTRF cAMP detection kit), HEK293/pGM-CREB-L-Luc/GIP pool; assay type: cell-based; conditions: read-out: EC50 (pM) for each receptor GIPR
Method: as §1

T1 sequence (P47871 26-477, species assumed): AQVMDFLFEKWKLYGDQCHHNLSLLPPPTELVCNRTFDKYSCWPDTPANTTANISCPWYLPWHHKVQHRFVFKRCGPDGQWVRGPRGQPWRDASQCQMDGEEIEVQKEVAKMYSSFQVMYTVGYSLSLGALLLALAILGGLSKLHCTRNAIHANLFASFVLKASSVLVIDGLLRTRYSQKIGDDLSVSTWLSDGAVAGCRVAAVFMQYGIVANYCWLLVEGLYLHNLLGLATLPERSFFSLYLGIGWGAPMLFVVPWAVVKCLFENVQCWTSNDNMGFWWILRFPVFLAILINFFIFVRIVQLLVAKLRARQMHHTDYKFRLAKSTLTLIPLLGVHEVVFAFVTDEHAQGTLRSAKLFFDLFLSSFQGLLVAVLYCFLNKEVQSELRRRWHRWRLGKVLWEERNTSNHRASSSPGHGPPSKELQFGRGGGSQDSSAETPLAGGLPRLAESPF
T3 sequence (P43220 24-463, species assumed): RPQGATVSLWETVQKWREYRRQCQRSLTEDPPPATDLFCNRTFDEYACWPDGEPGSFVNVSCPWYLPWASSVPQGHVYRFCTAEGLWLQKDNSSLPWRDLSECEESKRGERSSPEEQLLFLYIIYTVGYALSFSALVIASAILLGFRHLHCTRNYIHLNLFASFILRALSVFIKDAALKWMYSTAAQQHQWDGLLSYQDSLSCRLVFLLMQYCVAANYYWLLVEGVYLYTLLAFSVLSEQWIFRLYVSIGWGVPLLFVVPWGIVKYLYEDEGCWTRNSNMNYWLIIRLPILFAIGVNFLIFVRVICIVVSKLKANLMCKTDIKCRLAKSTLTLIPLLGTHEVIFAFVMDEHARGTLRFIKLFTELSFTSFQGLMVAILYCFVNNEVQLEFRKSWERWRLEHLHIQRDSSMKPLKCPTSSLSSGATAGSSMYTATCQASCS

## CC[C@H](C)[C@@H]1NC(=O)[C@H](Cc2ccccc2)NC(=O)[C@@H](NC(=O)C(C)(C)NC(=O)[C@H](CCC(N)=O)NC(=O)[C@H](C)NC(=O)[C@H](CCCCNC(C)=O)NC(=O)[C@H](CCCCN)NC(=O)[C@H](CC(=O)O)NC(=O)[C@H](CC(C)C)NC(=O)[C@](C)(CC(C)C)NC(=O)[C@@H](NC(=O)[C@H](CO)NC(=O)[C@H](Cc2ccc(O)cc2)NC(=O)[C@H](CC(=O)O)NC(=O)[C@H](CO)NC(=O)[C@@H](NC(=O)[C@H](Cc2ccccc2F)NC(=O)[C@@H](NC(=O)CNC(=O)[C@H](CCC(N)=O)NC(=O)C(C)(C)NC(=O)[C@@H](N)Cc2ccc(O)cc2)[C@@H](C)O)[C@@H](C)O)[C@@H](C)CC)CSCC(=O)NCCN(C(=O)CCC(=O)NCCOCCOCC(=O)NCCOCCOCC(=O)NCCCC[C@H](NC(=O)CCCCCCCCCCCCCCCCCCC(=O)O)C(=O)O)CCNC(=O)CSC[C@@H](C(=O)NCC(=O)NCC(=O)N2CCC[C@H]2C(=O)N[C@@H](CO)C(=O)N[C@@H](CO)C(=O)NCC(=O)N[C@@H](C)C(=O)N2CCC[C@H]2C(=O)N2CCC[C@H]2C(=O)N2CCC[C@H]2C(=O)N[C@@H](CO)C(N)=O)NC(=O)[C@H](CC(C)C)NC(=O)[C@H](CC(C)C)NC(=O)[C@H](Cc2ccc(O)cc2)NC(=O)[C@H](CCC(=O)O)NC1=O [TG40]
[1]
  EC50: 2.1 pM
[2]
  EC50: 12.5 pM
[3]
  EC50: 92.9 pM
[4]
  EC50: 33.9 pM
[5]; male, SD, iv, 1 mg/kg
  AUC(0-inf): 165 µg·h/mL
  AUC(0-t): 164 µg·h/mL
  MRT: 22.1 h
  Vd: 0.134 L/kg
  clearance: 0.101 mL/min/kg
  half-life: 900 min
[5]; male, SD, sc
  bioavailability: 50%
[5]; male, SD, sc, 3 mg/kg
  AUC(0-inf): 248 µg·h/mL
  AUC(0-t): 247 µg·h/mL
  CL/F: 0.205 mL/min/kg
  Cmax: 4770 ng/mL
  MRT: 36.9 h
  Tmax: 24 h
  half-life: 786 min
[5]; iv, 1 mg/kg
  AUC0-t /AUC0-inf: 0.997
  Kel: 0.0462 h⁻¹
[5]; sc, 3 mg/kg
  AUC0-t /AUC0-inf: 0.996
  Vz/F: 0.232 L/kg
[6]
  EC50: 3.1 pM

## CC[C@H](C)[C@H](NC(=O)[C@H](Cc1ccccc1)NC(=O)[C@H](C)NC(=O)[C@@H]1CSCC(=O)NCCN(C(=O)CCC(=O)NCCOCCOCC(=O)NCCOCCOCC(=O)NCCCC[C@H](NC(=O)CCCCCCCCCCCCCCCCCCC(=O)O)C(=O)O)CCNC(=O)CSC[C@H](NC(=O)[C@](C)(CCCCN)NC(=O)[C@H](CC(=O)O)NC(=O)[C@H](CC(C)C)NC(=O)[C@](C)(CC(C)C)NC(=O)[C@@H](NC(=O)[C@](C)(CO)NC(=O)[C@H](Cc2ccc(O)cc2)NC(=O)[C@H](CC(=O)O)NC(=O)[C@H](CO)NC(=O)[C@@H](NC(=O)[C@H](Cc2ccccc2F)NC(=O)[C@@H](NC(=O)CNC(=O)[C@H](CCC(N)=O)NC(=O)C(C)(C)NC(=O)[C@@H](N)Cc2ccc(O)cc2)[C@@H](C)O)[C@@H](C)O)[C@@H](C)CC)C(=O)N[C@@H](C)C(=O)N[C@@H](CCC(N)=O)C(=O)N1)C(=O)N[C@@H](CCC(=O)O)C(=O)N[C@@H](Cc1ccc(O)cc1)C(=O)N[C@@H](CC(C)C)C(=O)N[C@@H](CC(C)C)C(=O)N[C@@H](C)C(=O)NCC(=O)NCC(=O)N1CCC[C@H]1C(=O)N[C@@H](CO)C(=O)N[C@@H](CO)C(=O)NCC(=O)N[C@@H](C)C(=O)N1CCC[C@H]1C(=O)N1CCC[C@H]1C(=O)N1CCC[C@H]1C(=O)N[C@@H](CO)C(N)=O [TG62] (H-Y[Aib]QGT[Phe(2-F)]TSDY[αMeS]I[αMeL]LD[αMeK]CAQCAFIEYLLAGGPSSGAPPPS-NH2; linker 17-20 via X1)
[1]
  EC50: 62.2 pM
[2]
  EC50: 27.9 pM
[3]
  EC50: 783 pM
[4]
  EC50: 371 pM
[6]
  EC50: 6 pM
